Data: the supplement of paper PMC10307832

Columns and labels:
Assay in all cases: relative viability (nuclei count vs DMSO), 5 days (fraction); higher = more cells survive
R406 + OSI-027 = compound: COc1cc(Nc2ncc(F)c(Nc3ccc4c(n3)NC(=O)C(C)(C)O4)n2)cc(OC)c1OC [R406] + COc1cccc2cc(-c3nc([C@H]4CC[C@H](C(=O)O)CC4)n4ncnc(N)c34)[nH]c12 [OSI-027] (partner 0.5 µM)
Method in brief: (§1)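 Lung cancer cell lines in 1536-well plates got either a single drug or a fixed anchor-drug dose together with five library-drug doses (not always all listed) in √10 steps, by pin tool, on the day after seeding. Nuclei were counted after 5 days, and relative viability is the treated-to-vehicle ratio of nuclei counts. Values are medians of duplicate plates.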

R406 + Pictilisib = compound: COc1cc(Nc2ncc(F)c(Nc3ccc4c(n3)NC(=O)C(C)(C)O4)n2)cc(OC)c1OC [R406] + CS(=O)(=O)N1CCN(Cc2cc3nc(-c4cccc5[nH]ncc45)nc(N4CCOCC4)c3s2)CC1 [Pictilisib] (partner 1 µM)
Method in brief: as §1

Daporinad + Lapatinib = compound: O=C(/C=C/c1cccnc1)NCCCCC1CCN(C(=O)c2ccccc2)CC1 [Daporinad] + CS(=O)(=O)CCNCc1ccc(-c2ccc3ncnc(Nc4ccc(OCc5cccc(F)c5)c(Cl)c4)c3c2)o1 [Lapatinib] (partner 2 µM)
Method in brief: as §1

Daporinad + Dasatinib = compound: O=C(/C=C/c1cccnc1)NCCCCC1CCN(C(=O)c2ccccc2)CC1 [Daporinad] + Cc1nc(Nc2ncc(C(=O)Nc3c(C)cccc3Cl)s2)cc(N2CCN(CCO)CC2)n1 [Dasatinib] (partner 0.075 µM)
Method in brief: as §1

| Cell Line | relative viability (R406 + OSI-027; first compound 0.08 µM) | relative viability (R406 + OSI-027; first compound 0.253 µM) | relative viability (R406 + OSI-027; first compound 0.8 µM) | relative viability (R406 + OSI-027; first compound 2.53 µM) | relative viability (R406 + OSI-027; first compound 8 µM) | relative viability (R406 + Pictilisib; first compound 0.08 µM) | relative viability (R406 + Pictilisib; first compound 0.253 µM) | relative viability (R406 + Pictilisib; first compound 0.8 µM) | relative viability (R406 + Pictilisib; first compound 2.53 µM) | relative viability (R406 + Pictilisib; first compound 8 µM) | relative viability (Daporinad + Lapatinib; first compound 0.0005 µM) | relative viability (Daporinad + Lapatinib; first compound 0.001581 µM) | relative viability (Daporinad + Lapatinib; first compound 0.005 µM) | relative viability (Daporinad + Lapatinib; first compound 0.01581 µM) | relative viability (Daporinad + Dasatinib; first compound 0.0005 µM) | relative viability (Daporinad + Dasatinib; first compound 0.001581 µM) | relative viability (Daporinad + Dasatinib; first compound 0.005 µM) | relative viability (Daporinad + Dasatinib; first compound 0.01581 µM) |
| --- | --- | --- | --- | --- | --- | --- | --- | --- | --- | --- | --- | --- | --- | --- | --- | --- | --- | --- |
| NCI-H358 | 0.752 | 0.678 | 0.893 | 0.208 | 0.118 | 0.336 | 0.323 | 0.319 | 0.272 | 0.228 | 0.359 | 0.634 | 0.533 | 0.451 | 0.135 | 0.174 | 0.175 | 0.158 |
| NCI-H1792 | 0.642 | 0.772 | 0.784 | 0.37 | 0.378 | 0.264 | 0.193 | 0.302 | 0.161 | 0.164 | 0.837 | 0.987 | 0.838 | 0.932 | 0.617 | 0.815 | 0.477 | 0.921 |
| NCI-H661 | 0.674 | 0.819 | 0.702 | 0.501 | 0.38 | 0.367 | 0.456 | 0.459 | 0.345 | 0.271 | 0.374 | 0.443 | 0.403 | 0.402 | 0.939 | 1 | 0.518 | 0.388 |
| COR-L23 | 0.704 | 0.794 | 0.995 | 0.527 | 0.397 | 0.755 | 0.926 | 1.14 | 0.681 | 0.233 | 0.969 | 0.993 | 0.92 | 0.403 | 0.541 | 0.575 | 0.38 | 0.183 |
| COR-L 105 | 0.659 | 0.612 | 0.752 | 0.405 | 0.235 | 0.453 | 0.401 | 0.38 | 0.366 | 0.303 | 0.371 | 0.371 | 0.385 | 0.442 | 0.317 | 0.376 | 0.346 | 0.416 |
| LK-2 | 0.218 | 0.215 | 0.186 | 0.149 | 0.146 | 0.462 | 0.637 | 0.427 | 0.462 | 0.304 | 0.877 | 0.967 | 0.546 | 0.324 | 0.266 | 0.343 | 0.33 | 0.193 |
| 201T | 0.974 | 0.762 | 0.705 | 0.683 | 0.517 | 0.677 | 0.725 | 0.669 | 0.591 | 0.57 | 0.957 | 1.05 | 1.02 | 1.04 | 0.52 | 0.555 | 0.595 | 0.6 |
| NCI-H647 | 0.657 | 0.504 | 0.878 | 0.298 | 0.15 | 0.437 | 0.402 | 0.418 | 0.276 | 0.147 | 1.13 | 1.34 | 1.19 | 1.01 | 0.146 | 0.27 | 0.282 | 0.196 |
| H3255 | 0.569 | – | 0.651 | 0.426 | 0.406 | 0.48 | 0.533 | 0.495 | 0.347 | 0.331 | 0.24 | 0.255 | 0.247 | 0.235 | 0.391 | 0.387 | 0.491 | 0.443 |
| NCI-H650 | 0.453 | 0.553 | 0.465 | 0.45 | 0.344 | 0.89 | 1.04 | 0.993 | 0.613 | 0.604 | 0.889 | 1.25 | 1.19 | 1.31 | 0.391 | 0.395 | 0.473 | 0.53 |
| NCI-H2023 | 0.413 | 0.464 | 0.488 | 0.134 | 0.0924 | 0.239 | 0.243 | 0.257 | 0.0848 | 0.12 | 0.699 | 0.946 | 0.76 | 0.843 | 0.504 | 0.711 | 0.631 | 0.72 |
| NCI-H23 | 0.588 | 0.647 | 0.602 | – | 0.269 | 0.521 | 0.543 | 0.695 | 0.165 | 0.328 | 1.17 | 0.987 | 0.94 | 0.41 | 0.895 | 0.699 | 0.85 | 0.829 |
| NCI-H596 | 0.793 | 0.682 | 0.903 | 0.329 | 0.269 | 0.368 | 0.362 | 0.392 | 0.316 | 0.252 | 0.941 | 1.22 | 1.08 | 0.544 | 0.68 | 0.677 | 0.692 | 0.576 |
| NCI-H520 | 0.243 | 0.302 | 0.336 | 0.25 | 0.188 | 0.286 | 0.408 | 0.377 | 0.191 | 0.195 | 0.976 | 0.54 | 0.224 | 0.149 | 0.248 | 0.227 | 0.162 | 0.182 |
| EKVX | 0.721 | 0.739 | 0.778 | 0.601 | 0.552 | 0.436 | 0.41 | 0.422 | 0.357 | 0.347 | 0.169 | 0.223 | 0.231 | 0.251 | 0.47 | 0.535 | 0.619 | 0.838 |
| NCI-H1944 | 0.398 | 0.41 | 0.419 | 0.304 | 0.242 | 0.316 | 0.344 | 0.348 | 0.265 | 0.279 | 0.849 | 0.875 | 0.802 | 0.804 | 0.228 | 0.232 | 0.221 | 0.237 |
| EPLC-272H | 0.275 | 0.291 | 0.253 | 0.203 | 0.229 | 0.293 | 0.326 | 0.328 | 0.156 | 0.119 | 0.772 | 1.18 | 0.936 | 1.29 | 0.393 | 0.482 | 0.458 | 0.473 |
| NCI-H1563 | 0.736 | 0.734 | 0.831 | 0.638 | 0.543 | 0.678 | 0.656 | 0.726 | 0.594 | 0.492 | 1.1 | 1.07 | 0.844 | 0.862 | 0.43 | 0.423 | 0.497 | 0.458 |
